# Source: BindingDB's records for patent US11981680 (Bristol Myers Squibb, 2024)
# Molecular target: Protein-arginine deiminase type-4 (Homo sapiens, UniProt Q9UM07)
# Test: RFMS Human PAD4 Functional Assay
# Description: Compounds were solubilized in 100% DMSO to achieve a10 mM compound concentration. Compound stock solutions were stored at RT. A series of dilutions were prepared in DMSO and mixed 8 times with 20 μL mixing volume. Final top concentration of compound in the assay is 50 μM. Final assay conditions were as follows:Reaction volume: 26 μlAssay buffer: 25 mM hepes, pH 7.5, 5 mM NaCl, 1 mM DTT, 0.2 mg/ml BSA, 0.01% CHAPS, 50 μM Calcium, and 5 μM TPENFinal concentrations: 5 nM hPAD4 enzyme, 250 μM BAEE, and 0.5% DMSOTotal incubation time: 30 mins compound and enzyme preincubation at 37° C., 90 min enzyme/substrate reaction, 30 min reaction with phenyl glyoxal at 37° C.Stop solution: 40 μl 5% TCA in ACN0.13 μL of compound solution was added to 13 μL of 10 nM PAD4 in assay buffer. After 30 min 13 μl of 500 μM of BAEE was added in 25 mM hepes, pH 7.5, 5 mM NaCl, 1 mM DTT, 0.2 mg/ml BSA, 0.01% CHAPS, 50 μM Calcium, 5 μM TPEN was added and the reaction incubated for 90 min at 37° C. The enzymatic reaction was quenched by addition of 15 μl of 6.1N TCA, 100% Final Concentration is 20%, 35 μl of 8.5 mM phenyl glyoxal (final concentration 4 mM) is then added and the reaction is incubated for 30 min at 37° C.After 30 minutes the plates are spun down to remove all precipitate. The enzyme reaction was quenched with an equal volume of methanol containing internal standard (modified citrulline). […]
# Protein-arginine deiminase type-4, sequence (Q9UM07 whole entry): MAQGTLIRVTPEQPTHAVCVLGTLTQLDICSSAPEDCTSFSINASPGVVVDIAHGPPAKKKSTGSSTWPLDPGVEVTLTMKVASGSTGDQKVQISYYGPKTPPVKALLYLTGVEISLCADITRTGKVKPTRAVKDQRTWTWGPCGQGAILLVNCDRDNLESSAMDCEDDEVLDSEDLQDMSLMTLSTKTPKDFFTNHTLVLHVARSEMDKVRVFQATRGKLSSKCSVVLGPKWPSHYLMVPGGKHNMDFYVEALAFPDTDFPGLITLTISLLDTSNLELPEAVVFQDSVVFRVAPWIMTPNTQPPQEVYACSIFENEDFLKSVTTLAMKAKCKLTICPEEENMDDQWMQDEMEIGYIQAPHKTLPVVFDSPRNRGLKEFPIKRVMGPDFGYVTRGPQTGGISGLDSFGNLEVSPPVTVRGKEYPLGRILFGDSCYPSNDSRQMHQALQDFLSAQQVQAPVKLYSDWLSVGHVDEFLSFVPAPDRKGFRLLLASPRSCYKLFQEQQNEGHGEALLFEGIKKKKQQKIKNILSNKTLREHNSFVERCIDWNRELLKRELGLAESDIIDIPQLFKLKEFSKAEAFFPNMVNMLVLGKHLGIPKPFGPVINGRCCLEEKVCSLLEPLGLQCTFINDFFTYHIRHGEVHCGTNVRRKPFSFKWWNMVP
structure (smiles),measurement,value
"COc1cc(C(=O)N2C[C@H]3CC[C@@H]2[C@@H]3N)cc2nc(-c3cc4scc(-c5cn[nH]c5)c4n3CC3CC3)n(C)c12 [US11981680, Example 39]",IC50,35 nM
